Experimental data as given in US6258547A, “Nucleic acid encoding amp-activated protein kinase” (Zeneca Limited, priority 1993, dated 2001).

Tests used:
[1] = target: T1, Saccharomyces cerevisiae SNF1 protein kinase, wild type (Saccharomyces cerevisiae, UniProt P06782+P12904); experiment: SAMS peptide phosphorylation assay in yeast extracts; type: biochemical; details: over a range of AMP concentrations; data not shown
T1 construct: We were able to detect kinase activity using this assay in wild type yeast extracts; endogenous in cells; host or cells: wild type Saccharomyces cerevisiae extract
T1 sequence (P06782 1-633): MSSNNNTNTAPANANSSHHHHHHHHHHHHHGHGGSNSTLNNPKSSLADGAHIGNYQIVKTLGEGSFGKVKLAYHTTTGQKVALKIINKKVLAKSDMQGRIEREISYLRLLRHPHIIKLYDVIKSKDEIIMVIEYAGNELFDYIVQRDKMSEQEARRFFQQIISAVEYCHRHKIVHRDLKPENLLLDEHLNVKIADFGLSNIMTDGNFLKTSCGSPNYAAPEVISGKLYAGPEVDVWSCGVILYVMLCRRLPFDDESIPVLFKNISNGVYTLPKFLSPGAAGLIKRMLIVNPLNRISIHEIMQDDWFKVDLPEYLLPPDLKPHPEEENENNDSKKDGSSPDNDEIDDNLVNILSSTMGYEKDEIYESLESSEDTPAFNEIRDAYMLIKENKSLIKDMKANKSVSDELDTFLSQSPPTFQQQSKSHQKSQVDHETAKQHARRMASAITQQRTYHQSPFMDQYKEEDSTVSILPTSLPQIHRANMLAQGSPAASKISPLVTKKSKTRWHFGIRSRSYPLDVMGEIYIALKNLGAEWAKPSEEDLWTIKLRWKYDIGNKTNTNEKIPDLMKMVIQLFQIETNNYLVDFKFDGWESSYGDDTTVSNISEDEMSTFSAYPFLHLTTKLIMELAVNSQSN
T1 sequence (P12904 1-322): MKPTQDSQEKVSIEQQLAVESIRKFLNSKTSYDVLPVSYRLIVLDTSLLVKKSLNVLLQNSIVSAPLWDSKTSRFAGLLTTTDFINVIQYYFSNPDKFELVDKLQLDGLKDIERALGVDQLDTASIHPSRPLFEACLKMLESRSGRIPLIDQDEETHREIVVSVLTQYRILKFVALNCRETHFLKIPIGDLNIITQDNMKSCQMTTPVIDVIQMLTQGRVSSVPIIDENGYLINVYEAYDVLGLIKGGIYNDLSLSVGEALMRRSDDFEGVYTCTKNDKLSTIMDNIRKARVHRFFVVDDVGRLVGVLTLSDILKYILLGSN
Text: In Saccharomyces cerevisiae SNF1 protein kinase activity is essential for release of genes from glucose repression. […] The amino acid sequences of SNF1 and AMPK are 46% identical. We investigated whether SNF1 and AMPK shared any functional similarity in addition to their primary sequence homology. […] We believe that this polypeptide is likely to be involved in the regulation of mammalian AMPK in the same way that SNF4 regulates SNF1 function in yeast. […] The apparent Km of SAMS peptide for SNF1 (20 μM) was similar to that of the AMPK (data not shown).

[2] = test system: AMP-activated protein kinase (AMPK) partially purified from rat liver (DEAE-Sepharose fraction); type: biochemical; details: 200 µM
[3] = test system: AMP-activated protein kinase (AMPK) purified from rat liver; details: cited from earlier work

In the case of `Nc1ncnc2c1ncn2[C@@H]1O[C@H](COP(=O)(O)O)[C@@H](O)[C@H]1O` [AMP], the “activation of SNF1 by AMP” value [1] is listed as “unable to detect any significant activation”, the “stimulation of AMPK activity by AMP” value [2] is listed as “approximately 3 fold” and the “activation of AMPK by AMP” value [3] is listed as “approximately 5 fold”.
